The target of test [1] is T1, KRas^G12A (Homo sapiens, UniProt P01116, G12A).
T1 construct: Biotinylated KRas (corresponding to amino acids 1-169, produced at Accelegan Inc.); biotin (biotinylated); purchased Accelegan Inc
Nature of the test: KRas binding assay (TR-FRET tracer displacement), KRas G12A. Conditions: TR-FRET tracer displacement, KRas G12A. (In general: TR-FRET usually uses a lanthanide donor and a delayed reading to cut background.)

Test [2] deals with T2, KRas^G12S (Homo sapiens, UniProt P01116, G12S).
T2 construct: Biotinylated KRas (corresponding to amino acids 1-169, produced at Accelegan Inc.); biotin (biotinylated); purchased Accelegan Inc
T2 sequence (P01116 1-169 isoform P01116-2 G12S): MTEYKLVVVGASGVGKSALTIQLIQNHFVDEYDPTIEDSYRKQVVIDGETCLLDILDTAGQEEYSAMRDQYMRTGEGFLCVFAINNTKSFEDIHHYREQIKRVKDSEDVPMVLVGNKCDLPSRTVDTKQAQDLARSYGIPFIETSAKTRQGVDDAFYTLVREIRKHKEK
Briefly: KRas binding assay (TR-FRET tracer displacement), KRas G12S. Conditions: TR-FRET tracer displacement, KRas G12S.

The target of test [3] is T3, KRas^G12C (Homo sapiens, UniProt P01116, G12C).
T3 construct: Biotinylated KRas (corresponding to amino acids 1-169, produced at Accelegan Inc.); biotin (biotinylated); purchased Accelegan Inc
T3 sequence (P01116 1-169 isoform P01116-2 G12C): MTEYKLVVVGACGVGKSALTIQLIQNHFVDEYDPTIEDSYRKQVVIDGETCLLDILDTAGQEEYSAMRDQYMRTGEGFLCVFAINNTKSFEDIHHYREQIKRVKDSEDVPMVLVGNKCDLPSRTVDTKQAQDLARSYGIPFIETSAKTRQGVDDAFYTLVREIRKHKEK
Nature of the test: KRas binding assay (TR-FRET tracer displacement), KRas G12C. Conditions: TR-FRET tracer displacement, KRas G12C.

Test [4] addresses T4, KRas^Q61H (Homo sapiens, UniProt P01116, Q61H).
T4 construct: Biotinylated KRas (corresponding to amino acids 1-169, produced at Accelegan Inc.); biotin (biotinylated); purchased Accelegan Inc
Nature of the test: KRas binding assay (TR-FRET tracer displacement), KRas Q61H. Conditions: TR-FRET tracer displacement, KRas Q61H.

Test [5] concerns the target T5, KRas^G13D (Homo sapiens, UniProt P01116, G13D).
T5 construct: Biotinylated KRas (corresponding to amino acids 1-169, produced at Accelegan Inc.); biotin (biotinylated); purchased Accelegan Inc
Briefly: KRas binding assay (TR-FRET tracer displacement), KRas G13D. Conditions: TR-FRET tracer displacement, KRas G13D.

Test [6] deals with T6, KRas^G12R (Homo sapiens, UniProt P01116, G12R).
T6 construct: Biotinylated KRas (corresponding to amino acids 1-169, produced at Accelegan Inc.); biotin (biotinylated); purchased Accelegan Inc
T6 sequence (P01116 1-169 isoform P01116-2 G12R): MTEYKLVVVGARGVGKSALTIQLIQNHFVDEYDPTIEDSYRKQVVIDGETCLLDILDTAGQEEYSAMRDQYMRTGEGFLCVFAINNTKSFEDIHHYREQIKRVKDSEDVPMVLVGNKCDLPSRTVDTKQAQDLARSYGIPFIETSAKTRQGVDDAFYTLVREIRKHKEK
Briefly: KRas binding assay (TR-FRET tracer displacement), KRas G12R.

For test [7], the target named is T7, KRas^G12V (Homo sapiens, UniProt P01116, G12V).
T7 construct: Biotinylated KRas (corresponding to amino acids 1-169, produced at Accelegan Inc.); biotin (biotinylated); purchased Accelegan Inc
T7 sequence (P01116 1-169 isoform P01116-2 G12V): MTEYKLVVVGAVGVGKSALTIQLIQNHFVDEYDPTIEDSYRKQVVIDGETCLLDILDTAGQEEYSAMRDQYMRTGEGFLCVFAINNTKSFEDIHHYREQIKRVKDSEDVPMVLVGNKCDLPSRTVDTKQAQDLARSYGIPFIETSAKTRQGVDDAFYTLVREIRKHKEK
Briefly: KRas binding assay (TR-FRET tracer displacement), KRas G12V.

Test [8] addresses T8, KRas^G12D (Homo sapiens, UniProt P01116, G12D).
T8 construct: Biotinylated KRas (corresponding to amino acids 1-169, produced at Accelegan Inc.); biotin (biotinylated); purchased Accelegan Inc
Briefly: KRas binding assay (TR-FRET tracer displacement), KRas G12D.

Test [9] deals with T9, KRas^WT (Homo sapiens, UniProt P01116).
T9 construct: Biotinylated KRas (corresponding to amino acids 1-169, produced at Accelegan Inc.); biotin (biotinylated); purchased Accelegan Inc
T9 sequence (P01116 1-169 isoform P01116-2): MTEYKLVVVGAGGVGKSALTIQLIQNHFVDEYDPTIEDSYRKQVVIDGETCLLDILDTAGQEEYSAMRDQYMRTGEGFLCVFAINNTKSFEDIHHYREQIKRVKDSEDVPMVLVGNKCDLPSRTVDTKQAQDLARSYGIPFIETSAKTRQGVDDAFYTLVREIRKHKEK
Nature of the test: KRas binding assay (TR-FRET tracer displacement), KRas WT. Conditions: TR-FRET tracer displacement, KRas WT.

What is called IC50 is the point on the concentration scale where inhibition reaches its midpoint.

T5 sequence (P01116 1-169 isoform P01116-2 G13D): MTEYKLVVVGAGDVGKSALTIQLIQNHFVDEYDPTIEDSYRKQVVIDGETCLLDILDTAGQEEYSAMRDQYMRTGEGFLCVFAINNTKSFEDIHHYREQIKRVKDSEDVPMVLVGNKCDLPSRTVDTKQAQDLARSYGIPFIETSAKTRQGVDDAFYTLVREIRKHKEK
T8 sequence (P01116 1-169 isoform P01116-2 G12D): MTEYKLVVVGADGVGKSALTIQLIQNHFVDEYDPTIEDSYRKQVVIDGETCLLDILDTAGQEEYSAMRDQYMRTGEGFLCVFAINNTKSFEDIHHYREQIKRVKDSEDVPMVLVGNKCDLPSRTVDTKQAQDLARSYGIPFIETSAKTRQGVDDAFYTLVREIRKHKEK
T4 sequence (P01116 1-169 isoform P01116-2 Q61H): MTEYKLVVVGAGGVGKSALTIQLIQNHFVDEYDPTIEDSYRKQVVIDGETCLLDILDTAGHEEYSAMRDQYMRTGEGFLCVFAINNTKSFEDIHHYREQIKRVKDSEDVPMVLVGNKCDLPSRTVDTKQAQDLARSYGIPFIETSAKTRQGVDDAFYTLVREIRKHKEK
T1 sequence (P01116 1-169 isoform P01116-2 G12A): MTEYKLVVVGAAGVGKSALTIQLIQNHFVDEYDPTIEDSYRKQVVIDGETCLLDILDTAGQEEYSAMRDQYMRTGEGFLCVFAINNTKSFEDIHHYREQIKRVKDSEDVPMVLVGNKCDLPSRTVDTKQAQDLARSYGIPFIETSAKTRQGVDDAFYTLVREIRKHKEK

Consider `O[C@@H]1C[C@H]2C[C@@H]1CN(c1nc(OC[C@@]34CCCN3C[C@H](F)C4)nc3c(F)c(-c4cccc5ccccc45)ncc13)C2` [Example 724, (1R,5R,6R)-3-(8-fluoro-2-(((2R,7aS)-2-fluorohexahydro-1H-pyrrolizin-7a-yl)methoxy)-7-(naphthalen-1-yl)pyrido[4,3-d]pyrimidin-4-yl)-3-azabicyclo[3.2.1]octan-6-ol], for which the IC50 in [1] worked out at 301 nM; in test [2] it was 170 nM; in test [3], 185 nM; in test [4] it was 612 nM; in test [5] it was 585 nM; in test [6], 720 nM. The IC50 in test [7] was found to be 404 nM; in test [8], 1590 nM; in test [9], 419 nM.
As for `Cc1cc2[nH]nnc2c(-c2ncc3c(N4CCCC5(CNC(=O)N5)C4)nc(OCC45CCCN4CCC5)nc3c2F)c1C` (stereo not drawn) [Example 856, 7-(7-(5,6-dimethyl-1H-benzo[d][1,2,3]triazol-4-yl)-8-fluoro-2-((tetrahydro-1H-pyrrolizin-7a(5H)-yl)methoxy)pyrido[4,3-d]pyrimidin-4-yl)-1,3,7-triazaspiro[4.5]decan-2-one], the IC50 in test [1] stood at 2230 nM; in test [2] it was 2510 nM; in [3], 2060 nM; in [4] it was 2830 nM; in test [5] it was 2470 nM; in test [6], 4270 nM. Further, the IC50 in [7] came out at 2200 nM; in test [8], 1190 nM; in [9] it was 2820 nM.
Regarding `Cc1cc2[nH]cnc2c(-c2ncc3c(N4CCC[C@@](C)(O)C4)nc(OCC45CCCN4CCC5)nc3c2F)c1C` [Example 888, (3R)-1-(7-(5,6-dimethyl-1H-benzo[d]imidazol-4-yl)-8-fluoro-2-((tetrahydro-1H-pyrrolizin-7a(5H)-yl)methoxy)pyrido[4,3-d]pyrimidin-4-yl)-3-methylpiperidin-3-ol], the IC50 in test [1] was determined as 375 nM; in [2] it was 201 nM; in test [3], 199 nM; in [4] it was 539 nM; in test [5] it was 567 nM; in test [6], 62300 nM. The IC50 was 58300 nM in test [7], 40700 nM in test [8] and 579 nM in test [9].
`Cc1cc2[nH]nnc2c(-c2ncc3c(N4C[C@@H]5C[C@H](C4)[C@H](O)C5)nc(OCC45CCCN4CCC5)nc3c2F)c1C` [Example 832, (1R,5R,6R)-3-(7-(5,6-dimethyl-1H-benzo[d][1,2,3]triazol-4-yl)-8-fluoro-2-((tetrahydro-1H-pyrrolizin-7a(5H)-yl)methoxy)pyrido[4,3-d]pyrimidin-4-yl)-3-azabicyclo[3.2.1]octan-6-ol]: the 50% inhibitory concentration (IC50) in test [1] was determined as 3770 nM; in [2] it was 2940 nM; in test [3], 3200 nM; in test [4], 4610 nM; in test [5], 3880 nM; in [6], 6410 nM. Besides, the IC50 in [7] came out at 4550 nM; in test [8], 17100 nM; in [9], 4590 nM.
As for `Cc1cc2[nH]nnc2c(-c2ncc3c(N4CCCC5(C4)NC(=O)NC5=O)nc(OCC45CCCN4CCC5)nc3c2F)c1C` (stereo not drawn) [Example 823, 7-(7-(5,6-dimethyl-1H-benzo[d][1,2,3]triazol-4-yl)-8-fluoro-2-((tetrahydro-1H-pyrrolizin-7a(5H)-yl)methoxy)pyrido[4,3-d]pyrimidin-4-yl)-1,3,7-triazaspiro[4.5]decane-2,4-dione], the IC50 in test [1] came to 1430 nM; in [2], 1370 nM; in [3] it was 1300 nM; in test [4] it was 1390 nM; in test [5] it was 1270 nM; in test [6], 1380 nM. The IC50 came out at 922 nM in [7], 2220 nM in test [8] and 1420 nM in test [9].
On to `O=C1NC(=O)C2CC(c3nc(OCC45CCCN4CCC5)nc4c(F)c(-c5cccc6cccc(F)c56)ncc34)=CC12` (stereo not drawn) [Example 525, 5-(8-fluoro-7-(8-fluoronaphthalen-1-yl)-2-((tetrahydro-1H-pyrrolizin-7a(5H)-yl)methoxy)pyrido[4,3-d]pyrimidin-4-yl)-4,6a-dihydrocyclopenta[c]pyrrole-1,3(2H,3aH)-dione], for which the IC50 in [1] is 93800 nM; in test [2], more than 100000 nM; in test [3], more than 100000 nM; in test [4] it was more than 100000 nM; in test [5], more than 100000 nM; in test [6] it was 45400 nM. In addition, the 50% inhibitory concentration (IC50) is 55900 nM in test [7], 50700 nM in test [8] and more than 100000 nM in [9].
In the case of `Cc1cc2sncc2c(-c2ncc3c(N4CCC[C@@](C)(O)C4)nc(OCC45CCCN4CCC5)nc3c2F)c1C` [Example 820, (3R)-1-(7-(5,6-dimethylbenzo[d]isothiazol-4-yl)-8-fluoro-2-((tetrahydro-1H-pyrrolizin-7a(5H)-yl)methoxy)pyrido[4,3-d]pyrimidin-4-yl)-3-methylpiperidin-3-ol], the IC50 in [1] amounted to 634 nM; in test [2], 1510 nM; in [3], 591 nM; in test [4], 2130 nM; in test [5], 470 nM; in [6] it was 76200 nM. The concentration for half-maximal inhibition (IC50) in test [7] is 52000 nM; in [8] it was 22900 nM; in test [9], 1400 nM.
For `Cc1cc2[nH]nnc2c(-c2ncc3c(N4CCCn5nc(C(=O)N(C)C)cc5C4)nc(OCC45CCCN4CCC5)nc3c2F)c1C` [Example 839, 5-(7-(5,6-dimethyl-1H-benzo[d][1,2,3]triazol-4-yl)-8-fluoro-2-((tetrahydro-1H-pyrrolizin-7a(5H)-yl)methoxy)pyrido[4,3-d]pyrimidin-4-yl)-N,N-dimethyl-5,6,7,8-tetrahydro-4H-pyrazolo[1,5-a][1,4]diazepine-2-carboxamide], the IC50 in test [1] was 2380 nM; in test [2], 1260 nM; in test [3], 1630 nM; in [4], 3810 nM; in test [5] it was 4060 nM; in test [6], 2910 nM. Further, the IC50 in test [7] is 743 nM; in test [8] it was 153 nM; in [9], 3780 nM.
With `Cc1cc2[nH]nnc2c(-c2ncc3c(N4CCOC[C@@](C)(O)C4)nc(OCC45CCCN4CCC5)nc3c2F)c1C` [Example 822, (6S)-4-(7-(5,6-dimethyl-1H-benzo[d][1,2,3]triazol-4-yl)-8-fluoro-2-((tetrahydro-1H-pyrrolizin-7a(5H)-yl)methoxy)pyrido[4,3-d]pyrimidin-4-yl)-6-methyl-1,4-oxazepan-6-ol], the half-inhibitory concentration (IC50) in [1] worked out at 4980 nM; in test [2], 4660 nM; in test [3] it was 4080 nM; in test [4], 5660 nM; in test [5], 5410 nM; in [6], 9670 nM. Further, the IC50 in test [7] was determined as 3430 nM; in [8], 2180 nM; in [9] it was 5420 nM.
`Cc1cc2[nH]nnc2c(-c2ncc3c(N4CC5C(=O)NC(=O)C5C4)nc(OCC45CCCN4CCC5)nc3c2F)c1C` (stereo not drawn) [Example 833, 5-(7-(5,6-dimethyl-1H-benzo[d][1,2,3]triazol-4-yl)-8-fluoro-2-((tetrahydro-1H-pyrrolizin-7a(5H)-yl)methoxy)pyrido[4,3-d]pyrimidin-4-yl)tetrahydropyrrolo[3,4-c]pyrrole-1,3(2H,3aH)-dione]: the concentration for half-maximal inhibition (IC50) is 5130 nM in [1]; 1860 nM in test [2]; 4490 nM in test [3]; 3670 nM in test [4]; 2820 nM in test [5]; 9160 nM in [6]. The 50% inhibitory concentration (IC50) in test [7] was determined as 3540 nM; in test [8], 1080 nM; in test [9] it was 3830 nM.
For `Cc1cc2[nH]ccc2c(-c2ncc3c(N4CCC[C@@](C)(O)C4)nc(OCC45CCCN4CCC5)nc3c2F)c1C` [Example 871, (3R)-1-(7-(5,6-dimethyl-1H-indol-4-yl)-8-fluoro-2-((tetrahydro-1H-pyrrolizin-7a(5H)-yl)methoxy)pyrido[4,3-d]pyrimidin-4-yl)-3-methylpiperidin-3-ol], the IC50 in test [1] was found to be 3690 nM; in test [2], 4440 nM; in [3], 3820 nM; in test [4], 4530 nM; in test [5], 2720 nM; in test [6], 8950 nM. The IC50 in [7] is 4410 nM; in test [8] it was 2670 nM; in [9] it was 3420 nM.
`Cc1cc2[nH]nnc2c(-c2ncc3c(N4CCC[C@@](C)(O)C4)nc(OC[C@@]45CCCN4C[C@H](F)C5)nc3c2F)c1C` [Example 821, (3R)-1-(7-(5,6-dimethyl-1H-benzo[d][1,2,3]triazol-4-yl)-8-fluoro-2-(((2R,7aS)-2-fluorotetrahydro-1H-pyrrolizin-7a(5H)-yl)methoxy)pyrido[4,3-d]pyrimidin-4-yl)-3-methylpiperidin-3-ol]: the IC50 in test [1] worked out at 137 nM; in test [2] it was 121 nM; in test [3], 146 nM; in test [4] it was 196 nM; in test [5], 146 nM; in [6], 12000 nM. Besides, the figures for the 50% inhibitory concentration (IC50) in [7], in [8] and in test [9] were 5850 nM, 3890 nM and 151 nM, respectively.

The values are drawn from patent US20260015350A1, “AZAQUINAZOLINE PAN-KRAS INHIBITORS” (Mirati Therapeutics, Inc., priority 2022, published 2026).
